Reference: EP2818472A1, “Imidazo[4,5-c]pyridine and pyrrolo[3,2-c]pyridine compounds as G-protein-coupled receptor kinase 5 (GRK5) modulators” (Max-Planck-Gesellschaft zur Förderung der Wissenschaften …, priority 2013, dated 2014)

System: beta-TC6 cells
Test: Insulin HTRF assay (relative activity Ar) in beta-TC6 cells
Assay type: cell-based, mouse
Details: Mus musculus, Beta-TC6, 4 h, insulin HTRF, supernatant of beta-TC6 cells, incubation with test compound at 37°C for 2, 3, 4h; read-out: Ar (relative activity)
Summary of the method: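 beta-TC6 cells (15k/well, seeded 24 or 48 h) washed, then exposed to compound in induction buffer (0.5% DMSO final) for 2, 3 or 4 h at 37°C.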

SMILES	Emax
COc1ccc(Cn2cnc3cnc(Nc4ccc(NC(C)=O)cc4)cc32)cc1OC [Compound 730, N-[4-[[1-[(3,4-dimethoxyphenyl)methyl]imidazo[4,5-c]pyridin-6-yl]amino]phenyl]acetamide]	50 to 100%
COc1ccc(Cn2cnc3cnc(Nc4ccc5c(c4)OCO5)cc32)cc1OC [Compound 731, N-(1,3-benzodioxol-5-yl)-1-[(3,4-dimethoxyphenyl)methyl]imidazo[4,5-c]pyridin-6-amine]	50 to 100%
COc1cc(-n2cnc3cnc(-c4cccc(C(N)=O)c4)cc32)cc(OC)c1OC [Compound 732, 3-[1-(3,4,5-trimethoxyphenyl)imidazo[4,5-c]pyridin-6-yl]benzamide]	30 to 50%
Fc1cccc(-c2cc3c(cn2)ncn3-c2ccccc2)c1 [Compound 733, 6-(3-fluorophenyl)-1-phenyl-imidazo[4,5-c]pyridine]	30 to 50%
COc1ccc(-c2cc3c(cn2)ncn3-c2cccc(C(F)(F)F)c2)cc1OC [Compound 734, 6-(3,4-dimethoxyphenyl)-1-[3-(trifluoromethyl)phenyl]imidazo[4,5-c]pyridine]	30 to 50%
Cn1c(-c2ccccc2)nc2cnc(-c3ccc(N)nc3)cc21 [Compound 735, 5-(1-methyl-2-phenyl-imidazo[4,5-c]pyridin-6-yl)pyridin-2-amine]	30 to 50%
Cn1c(-c2ccco2)nc2cnc(-c3cccc(O)c3)cc21 [Compound 736, 3-[2-(2-furyl)-1-methyl-imidazo[4,5-c]pyridin-6-yl]phenol]	50 to 100%
COc1ccc(Cn2cnc3cnc(-c4cccnc4)cc32)cc1OC [Compound 737, 1-[(3,4-dimethoxyphenyl)methyl]-6-(3-pyridyl)imidazo[4,5-c]pyridine]	50 to 100%
COc1ccc(Cn2cnc3cnc(-c4cc(OC)c(OC)c(OC)c4)cc32)cc1OC [Compound 738, 1-[(3,4-dimethoxyphenyl)methyl]-6-(3,4,5-trimethoxyphenyl)imidazo[4,5-c]pyridine]	30 to 50%
COc1cc(-c2cc3c(cn2)ncn3Cc2ccc(OC)c(OC)c2)ccc1O [Compound 739, 4-[1-[(3,4-dimethoxyphenyl)methyl]imidazo[4,5-c]pyridin-6-yl]-2-methoxy-phenol]	30 to 50%
CN(C)c1cccc(-c2cc3c(cn2)ncn3-c2cccc(F)c2)c1 [Compound 740, 3-[1-(3-fluorophenyl)imidazo[4,5-c]pyridin-6-yl]-N,N-dimethyl-aniline]	50 to 100%
Sc1nc2cnccc2n1-c1ccccc1 [Compound 741, 1-phenylimidazo[4,5-c]pyridine-2-thiol]	50 to 100%
c1ccc(-c2nc3cnccc3[nH]2)nc1 [Compound 742, 2-(2-pyridyl)-1H-imidazo[4,5-c]pyridine]	30 to 50%
c1csc(-c2nc3ccncc3[nH]2)c1 [Compound 743, 2-(2-thienyl)-3H-imidazo[4,5-c]pyridine]	30 to 50%
COCc1nc2cnc(Nc3cc(OC)c(OC)c(OC)c3)cc2n1C [Compound 745, 2-(methoxymethyl)-1-methyl-N-(3,4,5-trimethoxyphenyl)imidazo[4,5-c]pyridin-6-amine]	30 to 50%
CC(=O)c1cccc(-c2cc3c(cn2)nc(NCc2ccccc2F)n3C)c1 [Compound 747, 1-[3-[2-[(2-fluorophenyl)methylamino]-1-methyl-imidazo[4,5-c]pyridin-6-yl]phenyl]ethanone]	0 to 30%

SMILES	Emax
Cn1c(NCc2ccccc2)nc2cnc(-c3cccc(C(=O)O)c3)cc21 [Compound 748, 3-[2-(benzylamino)-1-methyl-imidazo[4,5-c]pyridin-6-yl]benzoic acid]	0 to 30%
CNc1nc2cnc(Nc3ccc(Oc4ccccc4)cc3)cc2n1C [Compound 749, N2,1-dimethyl-N6-(4-phenoxyphenyl)imidazo[4,5-c]pyridine-2,6-diamine]	0 to 30%
Cn1c(NCC2CC2)nc2cnc(Nc3cccc(Oc4ccccc4)c3)cc21 [Compound 750, N2-(cyclopropylmethyl)-1-methyl-N6-(3-phenoxyphenyl)imidazo[4,5-c]pyridine-2,6-diamine]	0 to 30%
COCCNc1nc2cnc(-c3ccc(OC)nc3)cc2n1C [Compound 751, N-(2-methoxyethyl)-6-(6-methoxy-3-pyridyl)-1-methyl-imidazo[4,5-c]pyridin-2-amine]	0 to 30%
FC(F)(F)c1cccc(-c2cc3c(cn2)ncn3-c2ccccc2)c1 [Compound 752, 1-phenyl-6-[3-(trifluoromethyl)phenyl]imidazo[4,5-c]pyridine]	0 to 30%
CNc1nc2cnc(Nc3ccc(F)c(Cl)c3)cc2n1-c1cc(OC)c(OC)c(OC)c1 [Compound 753, N6-(3-chloro-4-fluoro-phenyl)-N2-methyl-1-(3,4,5-trimethoxyphenyl)imidazo[4,5-c]pyridine-2,6-diamine]	0 to 30%
COc1cccc(-c2cc3c(cn2)ncn3Cc2ccc(OC)c(OC)c2)c1 [Compound 754, 1-[(3,4-dimethoxyphenyl)methyl]-6-(3-methoxyphenyl)imidazo[4,5-c]pyridine]	0 to 30%
Cn1c(NCC2CCCO2)nc2cnc(Nc3cccc(OC(F)(F)F)c3)cc21 (stereo not drawn) [Compound 755, 1-methyl-N2-(tetrahydrofuran-2-ylmethyl)-N6-[3-(trifluoromethoxy)phenyl]imidazo[4,5-c]pyridine-2,6-diamine]	0 to 30%
Cn1c(-c2ccco2)nc2cnc(-c3cccc(OC(F)(F)F)c3)cc21 [Compound 756, 2-(2-furyl)-1-methyl-6-[3-(trifluoromethoxy)phenyl]imidazo[4,5-c]pyridine]	0 to 30%
Cn1c(NCC2CC2)nc2cnc(-c3cccc(Oc4ccccc4)c3)cc21 [Compound 758, N-(cyclopropylmethyl)-1-methyl-6-(3-phenoxyphenyl)imidazo[4,5-c]pyridin-2-amine]	0 to 30%
COCCNc1nc2cnc(-c3ccc4c(c3)OCO4)cc2n1C [Compound 759, 6-(1,3-benzodioxol-5-yl)-N-(2-methoxyethyl)-1-methyl-imidazo[4,5-c]pyridin-2-amine]	0 to 30%
CNc1nc2cnc(Nc3ccc(OC)cc3C)cc2n1CC1CC1 [Compound 760, 1-(cyclopropylmethyl)-N6-(4-methoxy-2-methyl-phenyl)-N2-methyl-imidazo[4,5-c]pyridine-2,6-diamine]	0 to 30%
CC(=O)Nc1ccc(-c2cc3c(cn2)ncn3-c2cccc(F)c2)cc1 [Compound 761, N-[4-[1-(3-fluorophenyl)imidazo[4,5-c]pyridin-6-yl]phenyl]acetamide]	0 to 30%
CNc1nc2cnc(-c3cccc(OC(F)(F)F)c3)cc2n1Cc1ccccc1 [Compound 762, 1-benzyl-N-methyl-6-[3-(trifluoromethoxy)phenyl]imidazo[4,5-c]pyridin-2-amine]	0 to 30%
Cn1c(NCC2CC2)nc2cnc(Nc3ccc(C(F)(F)F)cc3)cc21 [Compound 763, N2-(cyclopropylmethyl)-1-methyl-N6-[4-(trifluoromethyl)phenyl]imidazo[4,5-c]pyridine-2,6-diamine]	0 to 30%
COc1cncc(-c2cc3c(cn2)nc(-c2ccco2)n3C)c1 [Compound 764, 2-(2-furyl)-6-(5-methoxy-3-pyridyl)-1-methyl-imidazo[4,5-c]pyridine]	0 to 30%

Same assay, conditions: insulin HTRF, supernatant of beta-TC6 cells, incubation with test compound at 37°C for 2, 3, 4h

SMILES	Ar (relative activity)
Sc1nc2cnccc2n1-c1ccccc1 [Compound 744, 1-phenylimidazo[4,5-c]pyridine-2-thiol]	++ (30 % ≤ Ar < 50 %)
